Laboratory results reported in patent US20230091336A1, “CANNABINOID COMPOSITIONS” (priority 2020, published 2023).
Marks after values point to notes of the source that are not given here.

Assays:
[1] = tested on: cisplatin-induced nephritis mice; experiment: Cisplatin-induced kidney damage mouse model; assay type: in vivo; details: for body-weight loss in cisplatin-induced nephritis mice / kidney weight left / kidney weight right / urine / water intake / body weight: 10 mg/kg i.p.; for body-weight loss in cisplatin-induced nephritis mice: FIG. 25; for creatinine and BUN levels, treatment group vs vehicle group: cisplatin model, first statement of b267; for kidney weight left / kidney weight right / urine / water intake / body weight: cisplatin-induced mice at day 3; for body weight: cisplatin 16 mg/kg, n = 4-5; for kidney weight normalized to body weight / magnesium regulation (serum and urine magnesium) vs cisplatin vehicle group: day 3; for kidney weight normalized to body weight: FIG. 26; for magnesium regulation (serum and urine magnesium) vs cisplatin vehicle group: FIGS. 27A-27B; for kidney function as determined by blood urea nitrogen (BUN): day 3 serum, FIG. 28; for amount of PARP-1 protein in kidney (Western blot): vs cis(+) vehicle, FIG. 30B
Method: CBGA and/or CBD was injected intraperitoneally (i.p) 2 hours into C57BL/6 male mice (8 wks weighing 23-30 g) before cisplatin injection according to dosage schemes outlined below, and cisplatin-induced kidney damage was compared to normal kidneys. Sham treatment without cisplatin cis(−) was used as a negative control and cisplatin injection cis(+) without cannabinoid extract treatment was used as a positive vehicle control. Mice in group 1 (“vehicle”) received treatment with cisplatin (16 mg/kg body weight, lmg/mL in 0.90% NaCl, i.p) following intraperitoneal injection of vehicle control solution (5 mL/kg body weight) comprising 5% ethanol and 5% Tween80 in 0.9% NaCl. Mice in group 2 (“CBGA”) received treatment with cisplatin (16 mg/kg body weight, 1 mg/mL in 0.9% NaCl, i.p) following injection of CBGA (10 mg/kg body weight) 2 mg/mL in 5% ethanol, 5% Tween80 and 0.9% NaCl Mice in group 3 (“CBD”) received treatment with cisplatin (16 mg/kg body weight, 1 mg/mL in 0.9% NaCl, i.p) following intraperitoneal injection of CBD (10 mg/kg body weight) 2 mg/mL in 5% ethanol, 5% Tween80 and 0.9% NaCl. Mice in group 4 (“CBGA+CBD”) received treatment with cisplatin (16 mg/kg body weight, 1 mg/mL in 0.9% NaCl, i.p) following intraperitoneal injection of CBGA (10 mg/kg body weight)+CBD (10 mg/kg body weight) 2 mg/mL each in 5% ethanol, 5% Tween80 and 0.9% NaCl. Mice in group 5 (“cis(−)”) received sham injections comprising 0.9% NaCl (16 mL/kg body weight) following intraperitoneal injection of vehicle control solution (5 mL/kg body weight) 5% ethanol, 5% Tween80 and 0.9% NaCl.
Mice were euthanized at Day 3 following cisplatin injection, and kidneys were harvested and stored for processing and analysis.
Blood and urine were collected and analyzed to check kidney function. Blood was collected following euthanization, and urine was collected for 24 hrs before euthanasia in metabolic cages. […] Creatinine levels and BUN or urea value were measured from blood serum and urine samples to evaluate the kidney function. […] FIG. 29A-29B show measured creatinine levels in cisplatin-induced nephrotic mice at day 3. Urine was collected using a metabolic cage for 24 hours before sacrifice. Creatinine was assessed by an assay kit (n=4-5). Creatinine concentration in serum (FIG. 29A) and creatinine in urine (FIG. 29B) were maintained in cannabinoid-treated mice. *p<0.05 vs. cis(+) vehicle treatment group.
PARP-1 in cisplatin- and cannabinoid-treated kidney samples was evaluated by Western blot quantification. PARP activity increases to repair DNA damage, while it induces apoptosis when the cells have severe damage and can not be repaired in cisplatin-induced inflammatory kidneys. […] (FIG. 30A) PARP-1 in kidney tissue was evaluated by quantification of Western blot results, wherein α-tubulin was used as an internal control to normalize PARP-1 band quantification. […] PARP-1 was reduced in mice treated with cisplatin and cannabinoids, relative to mice treated with cisplatin and “vehicle” solution (FIG. 30B). Densitometric analysis was performed from the result of western blotting and presented as a bar graph (n=4-5). […] The rightmost bar represents the sham treatment (“cis(−)”), wherein mice received vehicle injections instead of both cisplatin and cannabinoid extracts as a negative control. **p<0.01 vs. cis(+) vehicle treatment group. CBGA reduced the amount of PARP-1 protein detected in cisplatin-induced nephritis mice. […]

[2] = target: T1, TRPM7 (Homo sapiens, UniProt Q96QT4); experiment: Whole-cell patch clamp of TRPM7 outward current in Jurkat cells; assay type: cell-based; parameters: endogenous in cells; host or cells: Jurkat; details: 10 μM
Method: (§1) Inward CRAC currents were induced at −120 mV (gray trace) and outward currents at +40 mV (black trace, where CRAC currents reverse and are essentially absent). At the +40 mV voltage potential, TRPM7 channels produce monovalent outward currents. Perfusion of 50 μM IP3 activates ICRAC at −120 mV as above and the removal of intracellular ATP slowly activates TRPM7 current at +40 mV. Application of 10 μM CBGA blocks both outward TRPM7 and inward CRAC currents (see FIG. 13, black and gray traces, respectively). Without being bound by theory, CBGA may also block TRPM7's kinase activity, similar to other TRPM7 blockers such as NS8593.
Target sequence in this assay (Q96QT4 whole entry, the tested form may be a part): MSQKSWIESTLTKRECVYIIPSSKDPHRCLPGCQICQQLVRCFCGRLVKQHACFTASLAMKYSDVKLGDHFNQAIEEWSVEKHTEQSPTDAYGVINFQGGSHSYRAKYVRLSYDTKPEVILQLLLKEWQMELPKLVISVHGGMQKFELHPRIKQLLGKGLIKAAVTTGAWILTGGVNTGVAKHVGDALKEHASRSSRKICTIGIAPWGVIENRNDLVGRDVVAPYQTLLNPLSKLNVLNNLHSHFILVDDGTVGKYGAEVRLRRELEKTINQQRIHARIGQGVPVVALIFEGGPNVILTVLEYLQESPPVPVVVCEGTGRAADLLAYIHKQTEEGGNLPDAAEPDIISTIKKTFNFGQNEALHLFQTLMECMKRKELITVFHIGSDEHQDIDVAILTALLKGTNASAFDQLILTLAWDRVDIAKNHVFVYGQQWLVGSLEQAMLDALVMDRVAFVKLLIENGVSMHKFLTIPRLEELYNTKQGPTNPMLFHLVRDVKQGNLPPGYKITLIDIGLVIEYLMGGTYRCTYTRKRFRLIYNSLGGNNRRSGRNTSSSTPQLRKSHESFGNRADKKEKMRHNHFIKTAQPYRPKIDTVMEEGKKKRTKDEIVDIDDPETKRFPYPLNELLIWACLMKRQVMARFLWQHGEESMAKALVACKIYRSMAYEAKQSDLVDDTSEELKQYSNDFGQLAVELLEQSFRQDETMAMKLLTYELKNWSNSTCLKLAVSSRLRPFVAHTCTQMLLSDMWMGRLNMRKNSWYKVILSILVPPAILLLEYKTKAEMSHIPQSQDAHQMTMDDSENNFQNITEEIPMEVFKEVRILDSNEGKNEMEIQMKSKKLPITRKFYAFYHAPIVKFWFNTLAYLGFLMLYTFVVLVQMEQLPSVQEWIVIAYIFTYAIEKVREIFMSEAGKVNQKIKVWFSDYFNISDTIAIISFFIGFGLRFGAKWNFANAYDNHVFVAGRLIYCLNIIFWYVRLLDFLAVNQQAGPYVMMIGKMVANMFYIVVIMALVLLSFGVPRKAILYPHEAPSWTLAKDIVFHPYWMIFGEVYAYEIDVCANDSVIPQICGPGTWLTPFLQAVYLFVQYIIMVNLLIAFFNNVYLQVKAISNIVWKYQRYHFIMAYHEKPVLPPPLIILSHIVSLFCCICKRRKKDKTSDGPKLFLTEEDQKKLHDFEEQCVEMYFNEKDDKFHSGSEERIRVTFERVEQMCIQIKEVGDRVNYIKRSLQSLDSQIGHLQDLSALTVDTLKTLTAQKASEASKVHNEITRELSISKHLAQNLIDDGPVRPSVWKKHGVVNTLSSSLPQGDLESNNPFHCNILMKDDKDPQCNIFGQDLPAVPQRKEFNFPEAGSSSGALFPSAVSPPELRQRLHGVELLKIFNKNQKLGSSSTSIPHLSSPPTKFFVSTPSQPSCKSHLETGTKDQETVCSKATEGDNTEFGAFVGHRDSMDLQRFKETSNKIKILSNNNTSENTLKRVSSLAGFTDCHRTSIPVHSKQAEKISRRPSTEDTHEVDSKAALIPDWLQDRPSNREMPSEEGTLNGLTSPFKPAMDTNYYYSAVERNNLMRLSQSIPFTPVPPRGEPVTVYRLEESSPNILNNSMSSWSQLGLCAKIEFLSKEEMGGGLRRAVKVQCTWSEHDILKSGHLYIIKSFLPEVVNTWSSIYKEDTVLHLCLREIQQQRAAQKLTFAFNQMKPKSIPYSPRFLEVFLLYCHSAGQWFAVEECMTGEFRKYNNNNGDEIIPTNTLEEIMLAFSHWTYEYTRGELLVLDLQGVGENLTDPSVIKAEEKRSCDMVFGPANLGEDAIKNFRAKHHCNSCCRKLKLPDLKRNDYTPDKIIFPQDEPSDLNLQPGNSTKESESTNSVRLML

[3] = tested on: CRAC channels (ICRAC); experiment: Whole-cell patch clamp of IP3-induced ICRAC in Jurkat cells; assay type: cell-based, human; details: 10 μM, 50 μM IP3
Method: The ability of CBGA to inhibit store-operated calcium entry (SOCE) within cells was experimentally interrogated (see FIG. 12). Jurkat cells were perfused with 50 μM IP3 to induce store depletion and activation of CRAC channels (the resulting Ca^2+ inward current is known as ICRAC). ICRAC is a long-lasting inward current at −120 mV membrane potential (black trace) that can be blocked by 10 μM CBGA (gray trace).
as §1

[4] = tested on: SOCE-mediated increases in intracellular Ca^2+; experiment: SOCE dose-response of CBGA (FIG. 15); assay type: cell-based; details: read-out: IC50 inhibition of SOCE-mediated increases in intracellular Ca^2+
From the text: (§2) Data from dose-response curves for the inhibition of TRPM7 currents (dark gray symbols) obtained in experiments shown in FIG. 14 and SOCE-mediated increases in intracellular Ca^2+ (light gray symbols) are shown in FIG. 15.

[5] = target: T1, TRPM7; experiment: Whole-cell patch clamp of TRPM7 over-expressed in HEK293 cells; assay type: cell-based; parameters: expressed in transfected cells; host or cells: HEK293; details: HEK293 over-expressing TRPM7
Method: Activation of TRPM7 over-expressed in HEK293 cells by perfusing the cells with intracellular solution containing 0 ATP and 0 Mg^2+, resulting in fast and maximal activation of TRPM7 outward currents at +40 mV is shown in FIG. 14.
as §2
Target sequence in this assay (Q96QT4 whole entry, species assumed, the tested form may be a part): as the sequence (Q96QT4 whole entry, the tested form may be a part) above

| Compound | body-weight loss in cisplatin-induced nephritis mice [1] | creatinine and BUN levels, treatment group vs vehicle group [1] | kidney weight left [1] | kidney weight right [1] | urine [1] | water intake [1] | body weight [1] | kidney weight normalized to body weight [1] | magnesium regulation (serum and urine magnesium) vs cisplatin vehicle group [1] | kidney function as determined by blood urea nitrogen (BUN) [1] | mRNA expression of inflammatory markers (TNF-α, IL-6, Cxcl10, ICAM-1, MCP-1, CRP, ET-1) in kidney ([1]; qRT-PCR, cis(+)-induced increase, FIGS. 31A-31G) | amount of PARP-1 protein in kidney (Western blot) [1] | block of outward TRPM7 current at +40 mV [2] | block of inward calcium current ICRAC at −120 mV [3] | IC50 [4] | block of TRPM7 current at +40 mV ([5]; 1, 3, 10 or 30 μM, 0 ATP, 0 Mg^2+) | IC50 ([5]; FIG. 15, read-out: IC50 inhibition of TRPM7 currents) |
| --- | --- | --- | --- | --- | --- | --- | --- | --- | --- | --- | --- | --- | --- | --- | --- | --- | --- |
| CCCCCc1cc(O)c(C/C=C(\C)CCC=C(C)C)c(O)c1C(=O)O [CBGA, (E)-3-(3,7-dimethylocta-2,6-dien-1-yl)-2,4-dihydroxy-6-pentylbenzoic acid] | recovered | did not change | 128 ± 8.2** mg | 139 ± 10.8 mg | 1.162 ± 0.128 mL | 2.50 ± 0.50* mL | 20.85 ± 1.29 g | No significant difference | maintained magnesium regulation | maintained kidney function | significantly reduced | reduced | blocks | completely blocks | ~2000 nM | dose-dependent block | ~3 µM |
| C=C(C)[C@@H]1CCC(C)=C[C@H]1c1c(O)cc(CCCCC)cc1O [CBD, (1′R,2′R)-5′-methyl-4-penlyl-2′-(prop-1-en-2-yl)-1′,2′,3′,4′-tetrahydro-[1,1′-biphenyl]-2,6-diol] | didn't affect | did not change | 121 ± 5.0** mg | 132 ± 6.8 mg | 1.042 ± 0.131 mL | 1.79 ± 0.37** mL | 20.23 ± 0.82* g | No significant difference | protected magnesium regulation | maintained kidney function |  | reduced |  |  |  |  |  |
